US20220265629A1, “TREATMENT OF SYSTOLIC DYSFUNCTION AND HEART FAILURE WITH REDUCED EJECTION FRACTION WITH THE COMPOUND (R)-4-(1-((3-(DIFLUOROMETHYL)-1-METHYL-1H-PYRAZOL-4-YL)SULFONYL)-1-FLUOROETHYL)-N-(ISOXAZOL-3-YL)PIPERIDINE-1-CARBOXAMIDE” (MyoKardia, Inc., priority 2019, published 2022)
≈ marks a conversion by molar mass, not a printed value. Read-outs that look alike come from different tables or passages of the source.

How the values were obtained:
[1] = system: patients with stable HFrEF; assay: HFrEF study Part 1 (SAD Cohorts 1 and 2): TTE pharmacodynamics by plasma concentration group; type: in vivo, human; details: for A wave peak change from baseline, placebo-corrected (LS mean difference) / E wave peak change from baseline, placebo-corrected (LS mean difference) / E/A ratio change from baseline, placebo-corrected (LS mean difference) / E/e′ lateral change from baseline, placebo-corrected (LS mean difference) / LVEDD change from baseline, placebo-corrected (LS mean difference) / LVEDV change from baseline, placebo-corrected (LS mean difference) / LVEF change from baseline, placebo-corrected (LS mean difference) / LVESD change from baseline, placebo-corrected (LS mean difference) / LVESV change from baseline, placebo-corrected (LS mean difference) / LVFS change from baseline, placebo-corrected (LS mean difference) / LVGLS change from baseline, placebo-corrected (LS mean difference) / LVSV change from baseline, placebo-corrected (LS mean difference) / SET change from baseline, placebo-corrected (LS mean difference) / e′ lateral change from baseline, placebo-corrected (LS mean difference): pooled SAD Cohorts 1 and 2
Experimental: PD assessment was done by transthoracic echocardiography as described in Example 1 above. TTE evaluations of LVSV (derived from LVOT-VTI), LVEF, LVFS, SET, and other parameters were PD assessments at predetermined time points. The patients were on bed rest for 10 minutes before the TTEs were obtained. In Part 2 (MAD), TTEs were usually obtained before the morning close and/or at 7 hours postclose (i.e., close to the anticipated peak effect based on the PK profile from the healthy volunteer studies).
For both Cohorts 1 and 2, the pharmacodynamic effects of Compound I on echocardiographic markers of cardiac structure and function were analyzed by Compound I plasma concentration groups: <2000 ng/mL (low concentration group) and >2000 ng/mL (high concentration group) (Table 12).

[2] = Physicochemical and biopharmaceutical properties of the drug substance (PBPK model input); details: for blood plasma ratio: blood and plasma
Source text: A PBPK mechanistic absorption model was developed by integrating (1) physicochemical and biopharmaceutical properties obtained from in vitro experimental measurements or in silico estimates based on chemical structure using ADMET Predictor (version 7.2) in GastroPlus (Version 9.6); (2) formulation properties of the drug product such as drug substance particle size distribution, formulation type, and rate of release or dissolution; (3) compartmental model kinetic parameters such as systemic clearance, volume of distribution, and inter-compartmental rate constants; and (4) gut physiology parameters such as gastro-intestinal (GI) transit time, pH, absorptive surface area, compartment dimensions and fluid content. The preexisting physiological parameters in GastroPlus (Version 9.6) for American healthy volunteers and beagle dogs under fasted conditions were used without modification.

[3] = Unbound (free) fraction in plasma; type: in vitro ADME
[4] = high plasma concentration group (≥2000 ng/mL)
[5] = crystalline free-base drug substance

Cn1cc(S(=O)(=O)[C@@](C)(F)C2CCN(C(=O)Nc3ccon3)CC2)c(C(F)F)n1 [Compound I, (R)-4-(1-((3-(difluoromethyl)-1-methyl-1H-pyrazol-4-yl)sulfonyl)-1-fluoroethyl)-N-(isoxazol-3-yl)piperidine-1-carboxamide]
SET prolongation in one patient ([1]; 350 mg, 1.5 and 3 h postdose): ~63 ms | Mean SET prolongation for all patients ([1]; 350 mg, 3 to 9 hours postdose): 16.2 ms | SET prolongation in one patient ([1]; 350 mg, 6 and 9 hours postdose): < 35 ms | increase in SET ([1]; SAD cohorts): < 50 ms | relative increases from baseline in cardiac contractility (SV, LVEF, FS) ([1]; SAD cohorts): approximately 10% | LV ejection fraction, mean (SE) increase from baseline [1, 4]: 4.4% | LV global longitudinal strain, mean (SE) decrease [1, 4]: −2.1% | A wave peak change from baseline, placebo-corrected (LS mean difference) ([1]; plasma <2000 ng/mL): -3.2 cm/s | E wave peak change from baseline, placebo-corrected (LS mean difference) ([1]; plasma <2000 ng/mL): -1.1 cm/s | E/A ratio change from baseline, placebo-corrected (LS mean difference) ([1]; plasma <2000 ng/mL): 0.09 | E/e′ lateral change from baseline, placebo-corrected (LS mean difference) ([1]; plasma <2000 ng/mL): 0.6 | LVEDD change from baseline, placebo-corrected (LS mean difference) ([1]; plasma <2000 ng/mL): 0.2 mm | LVEDV change from baseline, placebo-corrected (LS mean difference) ([1]; plasma <2000 ng/mL): -2.5 mL | LVEF change from baseline, placebo-corrected (LS mean difference) ([1]; plasma <2000 ng/mL): 4.1% | LVESD change from baseline, placebo-corrected (LS mean difference) ([1]; plasma <2000 ng/mL): −1.3 mm | LVESV change from baseline, placebo-corrected (LS mean difference) ([1]; plasma <2000 ng/mL): -4.0 mL | LVFS change from baseline, placebo-corrected (LS mean difference) ([1]; plasma <2000 ng/mL): 3.1% | LVGLS change from baseline, placebo-corrected (LS mean difference) ([1]; plasma <2000 ng/mL): −1.1% | LVSV change from baseline, placebo-corrected (LS mean difference) ([1]; plasma <2000 ng/mL): 1.0 mL | SET change from baseline, placebo-corrected (LS mean difference) ([1]; plasma <2000 ng/mL): 8 ms | e′ lateral change from baseline, placebo-corrected (LS mean difference) ([1]; plasma <2000 ng/mL): -1 cm/s | A wave peak change from baseline, placebo-corrected (LS mean difference) ([1]; plasma ≥2000 ng/mL): -8.8 cm/s | E wave peak change from baseline, placebo-corrected (LS mean difference) ([1]; plasma ≥2000 ng/mL): -1.6 cm/s | E/A ratio change from baseline, placebo-corrected (LS mean difference) ([1]; plasma ≥2000 ng/mL): 0.08 | E/e′ lateral change from baseline, placebo-corrected (LS mean difference) ([1]; plasma ≥2000 ng/mL): 0.2 | LVEDD change from baseline, placebo-corrected (LS mean difference) ([1]; plasma ≥2000 ng/mL): −0.3 mm | LVEDV change from baseline, placebo-corrected (LS mean difference) ([1]; plasma ≥2000 ng/mL): -1.9 mL | LVEF change from baseline, placebo-corrected (LS mean difference) ([1]; plasma ≥2000 ng/mL): 4.4% | LVESD change from baseline, placebo-corrected (LS mean difference) ([1]; plasma ≥2000 ng/mL): −1.8 mm | LVESV change from baseline, placebo-corrected (LS mean difference) ([1]; plasma ≥2000 ng/mL): -3.5 mL | LVFS change from baseline, placebo-corrected (LS mean difference) ([1]; plasma ≥2000 ng/mL): 2.8% | LVGLS change from baseline, placebo-corrected (LS mean difference) ([1]; plasma ≥2000 ng/mL): −2.1% | LVSV change from baseline, placebo-corrected (LS mean difference) ([1]; plasma ≥2000 ng/mL): 9.0 mL | SET change from baseline, placebo-corrected (LS mean difference) ([1]; plasma ≥2000 ng/mL): 36 ms | e′ lateral change from baseline, placebo-corrected (LS mean difference) ([1]; plasma ≥2000 ng/mL): -1 cm/s | Biopharmaceutics Classification System (BCS) class [2]: Class II | solubility ([2]; aqueous buffer, 37° C., across pH 1.2-9.6): ~43 µg/mL (≈ 98.8 µM) | blood plasma ratio ([2]; Dog, in vitro measured, read-out: B:P (Dog), ratio of concentration of drug in blood to plasma): 0.8 | blood plasma ratio ([2]; Human, in vitro measured, read-out: B:P (Human), ratio of concentration of drug in blood to plasma): 0.85 | hygroscopicity [2, 5]: nonhygroscopic | solubility in aqueous media [2, 5]: practically insoluble | Papp ([2]; human, Caco-2, in vitro measured, read-out: Permeability, Caco-2): 17.9 ×10⁻⁶ cm/s | logD ([2]; pH 7.4, Measured): 3.07 | fraction unbound ([3]; dog, Dog plasma, read-out: fup (Dog), unbound fraction in plasma): 0.416 | fraction unbound ([3]; human, Human plasma, 0.1 to 10 μM, read-out: fup (Human), unbound fraction in plasma): 0.144 to 0.164 | fraction unbound ([3]; human, read-out: fu, free fraction of Compound I in plasma): 0.14 to 0.18
